# Source: US20040152191A1 (priority 2001, published 2004)
# How the values were obtained:
# Assay type in all cases: cell-based
# [1] = test system: dendritic cells derived from human monocytes; test: Maturation of dendritic cells from human monocytes, surface markers by flow cytometry (Example 1); settings: D8, TNF-alpha 200 IU/ml
# Method: Peripheral blood is taken from the subject concerned. This blood is then centrifuged for 20 minutes at 200 g so as to diminish the contamination of the peripheral blood cells by platelets. The upper part containing most of the platelets and the plasma is carefully removed before the mononucleated cells are purified by centrifuging them on a Ficoll separation gradient, the density of which is 1.077. The layer of mononucleated cells is recovered, then washed twice with PBS buffer and deposited on a gradient containing 4 discontinuous densities of Percoll in order to isolate the monocytes. This gradient is constituted by concentrations of Percoll in isotonic solution of 75% (6.5 ml), 50.5% (15 ml), 40% (3.5 ml) and 30% (3 ml) in a Dulbecco medium without magnesium nor calcium and containing 5% human serum. 75 to 100 millions of cells are thus deposited in each tube and centrifuged at 1000 g during 25 minutes at 4° C. The low density cells, principally the monocytes, are harvested at the interface between the concentrations 40% and 50.5%, and washed twice with PBS. They are then resuspended in a culture medium, then deposited on culture plates containing 6 wells at a density of 5×10^6 cells per well in a final volume of 3 ml and left to adhere for 1 hour at 37° C. This adhesion step can be replaced by an additional purification of the monocytes by means of a negative purification system using a mixture of monoclonal antibodies combining an anti-CD3, CD7, CD19, CD45A, CD56 and anti-IgG with the aid of a Macs type microbead system (Miltenyi Biotec).
# The cells are then placed in culture in culture wells at 37° C. under 5% CO2. The medium which consists of RPMI contains 200 IU/ml of recombinant human GM-CSF and 500 IU/ml of recombinant human IL-4 in a final volume of 6 ml. On day 3 and day 5, the cultures are renewed by removing 3 ml and adding 3 ml of fresh medium with the cytokines. […] The cells are harvested on day 8, washed and cultivated in the absence of stimulation for a further 3 days.
# At the end of the culture period, the quality of the maturation is assessed by measuring the expression of the molecules CD80, 83, 86, 14, 1a, HLA-DR at the surface of the cells.
# [2] = test system: CD34+ cells of human cord blood; test: Production of dendritic cells from CD34+ cells of human cord blood, cell markers (Example 3); settings: TNF-α 200 IU/ml or RU 41740 10 μg/ml until D6
# Text: The experimental conditions are similar to Example 2, except the fact that the cells are derived from cord blood:
# Purification: After Ficoll, the CD34+ cells represent 0.83% of the mononucleated cells (MNC).
# After purification by positive selection, 18.1% of CD34+ are obtained.
# Duplication: on D6, D7,D8, D10 and D12.
# [3] = test system: Langerhans cells; test: Differentiation of Langerhans cells from cord blood CD34+ cells (Example 4); settings: D12; GM-CSF with TNF-α 2.5 ng/ml or RU 41740 10 μg/ml for 12 days
# Text: The stem cells are obtained after a passage of cord blood through a Ficoll gradient. The mononucleated CD34+ cells are purified by positive selection with an anti-CD34 monoclonal antibody (Immu 133.3, Immunotech Marseille, France). After purification, more than 90% of the cells are CD34+.
# At the end of the culture period at D12, the cells are labelled with the anti-CD1a, CD14, Lag, E-cadherin, DR and DQ antibodies so as to identify the Langerhans cells which are Lag+, CD1a+, CD14−, DR+ and DQ+.
substance,measurement,setting,value
TNF-α,"CD14, % of labelled cells",[1]; experiment a,0.87%
same,"CD40, MFI",[1]; experiment a,1603
same,"CD54, % of labelled cells",[1]; experiment a,97.4%
same,"CD54, MFI",[1]; experiment a,295
same,"CD80, % of labelled cells",[1]; experiment a,62.1%
same,"CD80, MFI",[1]; experiment a,129
same,"CD83, % of labelled cells",[1]; experiment a,84.5%
same,"CD83, MFI",[1]; experiment a,173
same,"CD86, % of labelled cells",[1]; experiment a,98.8%
same,"CD86, MFI",[1]; experiment a,326
same,"HLA-DQ, % of labelled cells",[1]; experiment a,84.3%
same,"HLA-DQ, MFI",[1]; experiment a,157
same,"HLA-DR, % of labelled cells",[1]; experiment a,98.9%
same,"HLA-DR, MFI",[1]; experiment a,1225
same,"CD1a, % of labelled cells",[1]; experiment b,0.21%
same,"CD14, % of labelled cells",[1]; experiment b,0.61%
same,"CD40, % of labelled cells",[1]; experiment b,99.6%
same,"CD40, MFI",[1]; experiment b,1728
same,"CD54, % of labelled cells",[1]; experiment b,95.6%
same,"CD54, MFI",[1]; experiment b,255
same,"CD80, % of labelled cells",[1]; experiment b,70.5%
same,"CD80, MFI",[1]; experiment b,93.5
same,"CD83, % of labelled cells",[1]; experiment b,89.5%
same,"CD83, MFI",[1]; experiment b,196
same,"CD86, % of labelled cells",[1]; experiment b,99.5%
same,"CD86, MFI",[1]; experiment b,273
same,"HLA-DQ, % of labelled cells",[1]; experiment b,84.2%
same,"HLA-DQ, MFI",[1]; experiment b,183
same,"HLA-DR, % of labelled cells",[1]; experiment b,99.1%
same,"HLA-DR, MFI",[1]; experiment b,946
same,"CD14, % of labelled cells",[1]; experiment c,3.27%
same,"CD40, % of labelled cells",[1]; experiment c,99.3%
same,"CD40, MFI",[1]; experiment c,1480
same,"CD54, % of labelled cells",[1]; experiment c,98.2%
same,"CD54, MFI",[1]; experiment c,249
same,"CD83, % of labelled cells",[1]; experiment c,89%
same,"CD83, MFI",[1]; experiment c,166
same,"CD86, % of labelled cells",[1]; experiment c,99.5%
same,"CD86, MFI",[1]; experiment c,284
same,"HLA-DR, % of labelled cells",[1]; experiment c,99.4%
same,"HLA-DR, MFI",[1]; experiment c,694
same,"CD1a, percentage of labelled cells",[2]; D7,4.41%
same,"CD14, percentage of labelled cells",[2]; D7,32%
same,"CD16, percentage of labelled cells",[2]; D7,2.24%
same,"CD34, percentage of labelled cells",[2]; D7,19.79%
same,"CD45, percentage of labelled cells",[2]; D7,99.84%
same,"CD83, percentage of labelled cells",[2]; D7,1.09%
same,"CD86, percentage of labelled cells",[2]; D7,11.61%
same,"CD1a, percentage of labelled cells",[2]; D9,23.75%
same,"CD14, percentage of labelled cells",[2]; D9,59.6%
same,"CD16, percentage of labelled cells",[2]; D9,2.16%
same,"CD34, percentage of labelled cells",[2]; D9,2.53%
same,"CD45, percentage of labelled cells",[2]; D9,99.96%
same,"CD83, percentage of labelled cells",[2]; D9,4.24%
same,"CD86, percentage of labelled cells",[2]; D9,22.23%
same,"CD1a, percentage of labelled cells",[2]; D10,20.63%
same,"CD14, percentage of labelled cells",[2]; D10,60%
same,"CD16, percentage of labelled cells",[2]; D10,2.11%
same,"CD34, percentage of labelled cells",[2]; D10,2.26%
same,"CD45, percentage of labelled cells",[2]; D10,99.97%
same,"CD83, percentage of labelled cells",[2]; D10,2.46%
same,"CD86, percentage of labelled cells",[2]; D10,9.23%
same,"CD1a, percentage of labelled cells",[2]; D12,27.9%
same,"CD14, percentage of labelled cells",[2]; D12,66.77%
same,"CD34, percentage of labelled cells",[2]; D12,0.69%
same,"CD40, percentage of labelled cells",[2]; D12,75.91%
same,"CD45, percentage of labelled cells",[2]; D12,99.85%
same,"CD54, percentage of labelled cells",[2]; D12,74.66%
same,"CD83, percentage of labelled cells",[2]; D12,0.71%
same,"CD86, percentage of labelled cells",[2]; D12,13.94%
same,"HLA-DR, percentage of labelled cells",[2]; D12,81.34%
same,"CD1a, percentage of labelled cells",[2]; D13,36.13%
same,"CD14, percentage of labelled cells",[2]; D13,57.73%
same,"CD34, percentage of labelled cells",[2]; D13,0.45%
same,"CD40, percentage of labelled cells",[2]; D13,63.35%
same,"CD45, percentage of labelled cells",[2]; D13,99.69%
same,"CD54, percentage of labelled cells",[2]; D13,61.7%
same,"CD83, percentage of labelled cells",[2]; D13,3.19%
same,"CD86, percentage of labelled cells",[2]; D13,12.78%
same,"HLA-DR, percentage of labelled cells",[2]; D13,73.04%
same,"CD1a, percentage of labelled cells",[2]; D14,34.2%
same,"CD14, percentage of labelled cells",[2]; D14,46.77%
same,"CD34, percentage of labelled cells",[2]; D14,0.38%
same,"CD40, percentage of labelled cells",[2]; D14,64.56%
same,"CD45, percentage of labelled cells",[2]; D14,99.93%
same,"CD54, percentage of labelled cells",[2]; D14,64.4%
same,"CD83, percentage of labelled cells",[2]; D14,1.22%
same,"CD86, percentage of labelled cells",[2]; D14,19.33%
same,"HLA-DR, percentage of labelled cells",[2]; D14,57.84%
same,CD1a+ DR+ cells,[3],8%
same,Lag+ DR+ cells,[3],5.2%
